According to ChEMBL document CHEMBL5543077, “A further pocket or conformational plasticity by mapping COX-1 catalytic site through modified-mofezolac structure-inhibitory activity relationships and their antiplatelet behavior” (Eur J Med Chem, 2024):

Experiments:
[1] = target: T1, Prostaglandin G/H synthase 1 (Ovis aries, UniProt P05979)
T1 sequence (P05979 whole entry): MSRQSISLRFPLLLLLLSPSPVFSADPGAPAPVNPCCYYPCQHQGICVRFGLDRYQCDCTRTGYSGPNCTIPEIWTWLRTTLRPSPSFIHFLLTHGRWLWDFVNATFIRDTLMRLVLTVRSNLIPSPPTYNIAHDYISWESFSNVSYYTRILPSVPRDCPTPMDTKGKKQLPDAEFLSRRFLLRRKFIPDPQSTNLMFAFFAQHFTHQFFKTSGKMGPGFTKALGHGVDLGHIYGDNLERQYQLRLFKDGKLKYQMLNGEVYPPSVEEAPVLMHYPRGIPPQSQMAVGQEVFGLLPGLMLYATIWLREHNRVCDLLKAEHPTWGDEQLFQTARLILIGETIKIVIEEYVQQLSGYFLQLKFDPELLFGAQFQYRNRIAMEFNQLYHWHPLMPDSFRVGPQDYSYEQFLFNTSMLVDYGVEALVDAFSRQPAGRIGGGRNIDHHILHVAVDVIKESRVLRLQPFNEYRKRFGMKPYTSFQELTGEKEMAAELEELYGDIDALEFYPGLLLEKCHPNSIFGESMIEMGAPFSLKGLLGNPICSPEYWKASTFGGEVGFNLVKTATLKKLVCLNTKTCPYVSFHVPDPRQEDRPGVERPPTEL
Description: Inhibition of ovine COX-1

[2] = target: T2, Prostaglandin G/H synthase 2 (Homo sapiens, UniProt P35354)
T2 sequence (P35354 whole entry): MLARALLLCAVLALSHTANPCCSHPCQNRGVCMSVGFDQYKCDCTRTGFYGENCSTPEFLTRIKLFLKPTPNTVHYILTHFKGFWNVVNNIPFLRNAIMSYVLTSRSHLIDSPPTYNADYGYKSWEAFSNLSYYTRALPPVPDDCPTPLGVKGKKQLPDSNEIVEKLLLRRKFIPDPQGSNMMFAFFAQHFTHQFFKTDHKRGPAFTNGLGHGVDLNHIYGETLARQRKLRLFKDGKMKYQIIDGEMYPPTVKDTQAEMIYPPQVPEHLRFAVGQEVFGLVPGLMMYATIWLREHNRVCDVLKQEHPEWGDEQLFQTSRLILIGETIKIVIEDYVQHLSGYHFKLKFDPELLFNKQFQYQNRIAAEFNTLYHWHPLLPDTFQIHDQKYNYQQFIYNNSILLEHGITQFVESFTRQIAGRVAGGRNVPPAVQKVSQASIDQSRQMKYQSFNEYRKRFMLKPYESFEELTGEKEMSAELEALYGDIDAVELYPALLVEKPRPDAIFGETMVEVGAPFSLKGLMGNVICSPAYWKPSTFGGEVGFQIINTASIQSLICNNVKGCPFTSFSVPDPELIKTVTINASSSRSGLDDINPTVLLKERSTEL

[3] = target: T1, Prostaglandin G/H synthase 1; remark: listed apart in the source
Description: Inhibition of ovine COX-1 by colorimetric assay

[4] = target: T2, Prostaglandin G/H synthase 2; remark: listed apart in the source
Description: Inhibition of human COX-2 by colorimetric assay

[5] = target: T2, Prostaglandin G/H synthase 2; remark: listed apart in the source
Description: Inhibition of recombinant human COX-2 measured after 5 mins by absorbance based analysis

Platelet = experiment: cells; type: functional, cell-based; settings: Homo sapiens, 2 min
Description: Antiplatelet activity in human platelets assessed as inhibition of arachidonic acid-induced platelet aggregation measured after 2 mins by turbidimetric analysis

in vitro [6] = settings: chlorocebus sabaeus, vero
Description: Cytotoxicity against African green monkey Vero cells assessed as cell viability at 100 uM measured after 24 hrs by MTT assay relative to control

in vitro [7] = settings: human, erythrocyte
Description: Hemolytic activity in human red blood cells assessed as hemolysis at 100 uM measured after 3 hrs by microplate reader assay relative to control

[8] = target: T1, Prostaglandin G/H synthase 1; remark: listed apart in the source
Description: Inhibition of ovine COX-1 measured after 5 mins by absorbance based analysis

`CCc1onc(-c2ccccc2)c1-c1ccccc1` showed an IC50 [1] of 0.05 µM and an IC50 [2] of over 1.49 µM.
`Cc1onc(-c2ccc(Cl)o2)c1-c1ccccc1` gave an IC50 [2] of over 100 µM.
Work on `Cc1onc(-c2ccccc2)c1-c1ccccc1` yielded an IC50 [1] of 0.09 µM.
Work on `Cc1onc(-c2ccc(OCc3ccccc3)cc2)c1-c1ccc(OCc2ccccc2)cc1` yielded an IC50 [3] of over 50 µM and an IC50 [4] of over 50 µM.
For `CCCCOc1ccc(-c2c(-c3ccc(OC)cc3)noc2C)cc1`, the IC50 [3] was over 50 µM and the IC50 [4] was over 50 µM.
`C=CCc1cccc(-c2nc(-c3ccccc3Cl)c(-c3ccccc3Cl)[nH]2)c1OC(=O)COC` gave an IC50 [5] of over 100 µM.
For `O=C(O)Cc1onc(-c2ccc(OCc3ccccc3)cc2)c1-c1ccc(OCc2ccccc2)cc1`, the IC50 [3] was over 50 µM and the IC50 [4] was over 50 µM.
Molecule `O=C(O)Cc1onc(-c2ccc(Oc3ccccc3)cc2)c1-c1ccc(Oc2ccccc2)cc1` has an IC50 [3] of over 50 µM and an IC50 [4] of over 50 µM.
With `CCCCOc1ccc(-c2noc(CC(=O)O)c2-c2ccc(OCCCC)cc2)cc1` the IC50 [3] was 0.053 µM, the IC50 [4] was over 50 µM and the IC50 (Platelet) was over 100 µM. It also gave a viability at 24 h, 100 µM (in vitro [6]) of over 70% and a hemolysis at 3 h, 100 µM (in vitro [7]) of 0%.
Molecule `CCCCOc1ccc(-c2noc(C)c2-c2ccc(OCCCC)cc2)cc1` has an IC50 [3] of over 50 µM and an IC50 [4] of over 50 µM.
Molecule `CCOc1ccc(-c2noc(C)c2-c2ccc(OCC)cc2)cc1` has an IC50 [3] of 0.23 µM, an IC50 [4] of over 50 µM and an IC50 (Platelet) of 1 µM. It also gave a viability at 24 h, 100 µM (in vitro [6]) of over 70% and a hemolysis at 3 h, 100 µM (in vitro [7]) of 0%.
In the case of `CCCOc1ccc(-c2noc(C)c2-c2ccc(OCCC)cc2)cc1`, the IC50 [3] is reported as over 50 µM and the IC50 [4] is reported as over 50 µM.
In the case of `Cc1onc(-c2ccc(OC(C)(C)C)cc2)c1-c1ccc(OC(C)(C)C)cc1`, the IC50 [3] is reported as over 50 µM and the IC50 [4] is reported as over 50 µM.
Molecule `CCCOc1ccc(-c2c(-c3ccc(OC)cc3)noc2C)cc1` has an IC50 [3] of 1.3 µM, an IC50 [4] of over 50 µM and a hemolysis at 3 h, 100 µM (in vitro [7]) of 0%.
Molecule `CCOc1ccc(-c2noc(CC(=O)O)c2-c2ccc(OCC)cc2)cc1` has an IC50 [3] of 0.12 µM, an IC50 [4] of over 50 µM and an IC50 (Platelet) of 0.7 µM. It also gave a viability at 24 h, 100 µM (in vitro [6]) of over 70% and a hemolysis at 3 h, 100 µM (in vitro [7]) of 0%.
With `CCOc1ccc(-c2c(-c3ccc(OC)cc3)noc2CC(=O)O)cc1` the IC50 [3] was 0.12 µM, the IC50 [4] was over 50 µM and the IC50 (Platelet) was 29.5 µM. It also gave a viability at 24 h, 100 µM (in vitro [6]) of over 70% and a hemolysis at 3 h, 100 µM (in vitro [7]) of 0%.
For `CCCOc1ccc(-c2c(-c3ccc(OC)cc3)noc2CC(=O)O)cc1`, the IC50 [3] was 0.079 µM, the IC50 [4] was 6.9 µM and the IC50 (Platelet) was 72.1 µM. The viability at 24 h, 100 µM (in vitro [6]) was over 70% and the hemolysis at 3 h, 100 µM (in vitro [7]) was 0%.
`CCCCOc1ccc(-c2c(-c3ccc(OC)cc3)noc2CC(=O)O)cc1` showed an IC50 [3] of 0.32 µM and an IC50 [4] of 0.45 µM.
Molecule `Cc1onc(-c2ccc(Oc3ccccc3)cc2)c1-c1ccc(Oc2ccccc2)cc1` has an IC50 [3] of over 50 µM and an IC50 [4] of over 50 µM.
In the case of `C=CCc1cccc(-c2nc(-c3ccccc3Cl)c(-c3ccccc3Cl)[nH]2)c1OC(C)=O`, the IC50 [5] is reported as over 100 µM and the IC50 [8] is reported as over 100 µM.
Molecule `CCOc1ccc(-c2c(-c3ccc(OC)cc3)noc2C)cc1` has an IC50 [3] of 0.046 µM, an IC50 [4] of over 50 µM and an IC50 (Platelet) of 2.5 µM. The viability at 24 h, 100 µM (in vitro [6]) was 64%.
Work on `CCOc1ccc(N)cc1C(=O)Nc1cccc(C(F)(F)F)c1` yielded an IC50 [1] of 3.2 µM and an IC50 [2] of over 100 µM.
Molecule `COc1ccc(-c2noc(C)c2-c2ccc(OCc3ccccc3)cc2)cc1` has an IC50 [3] of over 50 µM and an IC50 [4] of over 50 µM.
`COc1ccc(-c2noc(CC(=O)O)c2-c2ccc(OC(C)(C)C)cc2)cc1` gave an IC50 [3] of over 50 µM and an IC50 [4] of over 50 µM.
Molecule `COc1ccc(-c2noc(CC(=O)O)c2-c2ccc(OCc3ccccc3)cc2)cc1` has an IC50 [3] of 0.45 µM, an IC50 [4] of over 50 µM and an IC50 (Platelet) of over 100 µM. The viability at 24 h, 100 µM (in vitro [6]) was over 70% and the hemolysis at 3 h, 100 µM (in vitro [7]) was 0%.
In the case of `COc1ccc(-c2noc(C)c2-c2ccc(Oc3ccccc3)cc2)cc1`, the IC50 [3] is reported as over 50 µM and the IC50 [4] is reported as over 50 µM.
`CCCOc1ccc(-c2noc(CC(=O)O)c2-c2ccc(OCCC)cc2)cc1` showed an IC50 [3] of over 50 µM and an IC50 [4] of 3.6 µM.
Work on `CC(C)(C)Oc1ccc(-c2noc(CC(=O)O)c2-c2ccc(OC(C)(C)C)cc2)cc1` yielded an IC50 [3] of over 50 µM and an IC50 [4] of over 50 µM.
`COc1ccc(-c2noc(C)c2-c2ccc(OC(C)(C)C)cc2)cc1` gave an IC50 [3] of over 50 µM and an IC50 [4] of over 50 µM.
With `COc1ccc(-c2noc(CC(=O)O)c2-c2ccc(Oc3ccccc3)cc2)cc1` the IC50 [3] was over 50 µM and the IC50 [4] was over 50 µM.
In the case of `CC(=O)Oc1ccccc1C(=O)O` [ASPIRIN], the IC50 (Platelet) is reported as 36.2 µM.
`COc1ccc(-c2nc(C(=O)N3CCN(C)CC3)sc2-c2ccc(OC)cc2)cc1` [FR-122047] showed an IC50 [1] of 0.028 µM.
